Laboratory results: publication PMC3401542 (Bioorganic & medicinal chemistry, 2012)
Read-outs that look alike come from different tables or passages of the source.

Assays:
[1] = molecular target: neuraminidase of B/Malaysia/5206/04 (Influenza B virus, UniProt Q38G90); test: Neuraminidase inhibition, fluorogenic MUNANA substrate, purified intact virions; type: biochemical; conditions: read-out: Inhibition of Neuraminidase, IC50
[2] = molecular target: neuraminidase of A/Solomon Islands/3/06 (H1N1) (Influenza A virus, UniProt B4URD9); type: biochemical; conditions: read-out: Inhibition of Neuraminidase, IC50
[3] = molecular target: neuraminidase of A/Uruguay/716/07 (H3N2) (Influenza A virus, UniProt I6VF55); type: biochemical; conditions: read-out: Inhibition of Neuraminidase, IC50
[4] = molecular target: neuraminidase of A/Brisbane/59/07 (H1N1) (Influenza A virus, UniProt D5F1R0); test: biochemical; type: biochemical
type B NAs = conditions: read-out: inhibition (IC50) of type B NAs; range over type B NAs; ref [28]; cited from earlier work
N2 NAs = conditions: read-out: inhibition (IC50) of N2 NAs; range over N2 NAs; ref [28]; cited from earlier work

Work on “4-(2,2-Bis(hydroxymethyl)-3-((3-pentyloxy)methyl)-5-oxopyrrolidin-1-yl)benzoic Acid [Compound 10c]” yielded an IC50 [1] of 30 ± 1.4 µM, an IC50 [2] of 0.8 ± 0.07 µM and an IC50 [3] of 0.5 ± 0.1 µM. The “improved N1 NA activity compared to the parent 3” value [4] was 80–100 fold and the IC50 ([4]; read-out: Inhibition of Neuraminidase, IC50) was 1 ± 0.21 µM.
In the case of `CCC(CC)O[C@@H]1C=C(C(=O)O)C[C@H](N)[C@H]1NC(C)=O` [Compound 1c, oseltamivir carboxylate], the IC50 (type B NAs) is given as 0.005 to 0.0243 µM and the IC50 (N2 NAs) is given as 0.00068 to 0.00178 µM.
In the case of `CC(C)OCc1cc(C(=O)O)ccc1N1C(=O)CCC1(CO)CO` [Compound 10a, 4-(2,2-Bis(hydroxymethyl)-5-oxopyrrolidin-1-yl)-3-(isopropoxymethyl)benzoic Acid], the IC50 [4] is reported as greater than 10000 µM.
For `CCC(C)OCc1cc(C(=O)O)ccc1N1C(=O)CCC1(CO)CO` (centres unmarked) [Compound 10b, 4-(2,2-Bis(hydroxymethyl)-5-oxopyrrolidin-1-yl)-3-(2-butoxymethyl)benzoic Acid], the IC50 [4] was 16 ± 2.1 µM.
In the case of `CCC(=Cc1cc(C(=O)O)ccc1N1C(=O)CCC1(CO)CO)CC` [Compound 13b, 4-(2,2-Bis (hydroxymethyl)-5-oxopyrrolidin-1-yl)-3-(2-ethylbut-1-enyl)benzoic Acid], the IC50 [4] is reported as 2.4 ± 0.9 µM and the “improved N1 NA activity compared to the parent 3” value [4] is reported as 30–40 fold.
`CC(C)Cc1cc(C(=O)O)ccc1N1C(=O)CCC1(CO)CO` [Compound 13c, 4-(2,2-Bis (hydroxymethyl)-5-oxopyrrolidin-1-yl)-3-isobutylbenzoic Acid] gave an IC50 [4] of 70 ± 7.8 µM.
In the case of `CCC(CC)Cc1cc(C(=O)O)ccc1N1C(=O)CCC1(CO)CO` [Compound 14b, 4-(2,2-Bis (hydroxymethyl)-5-oxopyrrolidin-1-yl)-3-(2-ethylbutyl)benzoic Acid], the IC50 [4] is reported as 1.6 ± 0.6 µM and the “improved N1 NA activity compared to the parent 3” value [4] is reported as 30–40 fold.
